Results taken from patent publication US12540150B1, “Fluorogenic probe using a Mislow-Evans rearrangement for real-time imaging of hydrogen peroxide” (University of Pittsburgh—Of the Commonwealth System of …, priority 2020, dated 2026).
Where “and” joins values, the source holds several entries; their conditions need not be identical. Equal values may be shown once.

What was measured:
[1] = Selectivity of 1: reaction with ^1O2; conditions: for Fluorescence: 40 min minus 0 min
Procedure: Probe 1 was titrated with NaMoO4 and H2O2 to determine whether ^1O2 reacted with the probe 1. A solution of 100 μM 1 in ethanol (20 μL) was added to 5:95 methanol/50 mM phosphate pH 7 buffer (140 μL). Water, 1 mM sodium azide, or 104 U/mL catalase (20 μL) was added to the mixture. NaMoO4·2H2O (11.1 mg) was added to ultrapure water (2.00 mL). This solution was diluted to 20 μM, 200 μM, and 2.00 mM. H2O2 was diluted to 200 μM and 2.00 mM. Equal volumes of NaMoO4 solution and H2O2 were added together, and an aliquot (20 μL) was immediately transferred to the solution containing 1. The fluorescence intensity was measured immediately and again after incubation at 25° C. for 40 min. A large fluorescence increase was observed only in the samples containing […] of both Na2MoO4 and H2O2(FIG. 16 and Table 7). […] 10^4 UmL^−1 catalase was added to the solutions to verify that 1 indeed responded to excess H2O2 that had not reacted with the Na2MoO4. The addition of catalase abolished the fluorescence signal observed in the presence of high concentrations of H2O2(FIG. 16 and Table 7). The fluorescence values in Table 7 are the fluorescence at 40 min minus the fluorescence at 0 min.

[2] = Kinetics of the reaction of 1 with H2O2; conditions: for F-F0 (515 nm) / [1]: [H2O2] = 0.625 mM

Compound: Oc1ccc2c(c1)Oc1cc(O/C=C/C[Se]c3ccccc3)ccc1[C@@]21OCc2ccccc21 [Compound 1, (S,E)-6′-((3-(Phenylselanyl)prop-1-en-1-yl)oxy)-3H-spiro[isobenzofuran-1,9′-xanthen]-3′-ol]
- cause of fluorescence increase (reaction with ^1O2) [1]: not by ^1O2 itself
- Fluorescence ([1]; NaN3, NaMoO4 0 μM, 0 μM H2O2): 47,427 and 27,816 and 33,822
- Fluorescence ([1]; NaN3, NaMoO4 0 μM, 10 μM H2O2): 22,037 and 25,574 and 26,509
- Fluorescence ([1]; NaN3, NaMoO4 0 μM, 100 μM H2O2): 86,779 and 47,879 and 71,128
- Fluorescence ([1]; NaN3, NaMoO4 1 μM, 0 μM H2O2): 17,056 and 15,590 and 28,737
- Fluorescence ([1]; NaN3, NaMoO4 1 μM, 10 μM H2O2): 47,687 and 30,921 and 55,460
- Fluorescence ([1]; NaN3, NaMoO4 1 μM, 100 μM H2O2): 75,276 and 58,618 and 52,801
- Fluorescence ([1]; NaN3, NaMoO4 10 μM, 0 μM H2O2): 48,985 and 26,189 and 39,286
- Fluorescence ([1]; NaN3, NaMoO4 10 μM, 10 μM H2O2): 41,011 and 44,837 and 41,481
- Fluorescence ([1]; NaN3, NaMoO4 10 μM, 100 μM H2O2): 128,720 and 99,199 and 137,922
- Fluorescence ([1]; NaN3, NaMoO4 100 μM, 0 μM H2O2): 41,150 and 60,360 and 31,422
- Fluorescence ([1]; NaN3, NaMoO4 100 μM, 10 μM H2O2): 36,764 and 62,417 and 61,596
- Fluorescence ([1]; NaN3, NaMoO4 100 μM, 100 μM H2O2): 427,359 and 459,433 and 473,881
- Fluorescence ([1]; catalase, NaMoO4 1 μM, 100 μM H2O2): 54,776 and 34,302 and 31,904
- Fluorescence ([1]; catalase, NaMoO4 10 μM, 100 μM H2O2): 66,499 and 39,161 and 54,221
- Fluorescence ([1]; catalase, NaMoO4 100 μM, 100 μM H2O2): 137,047 and 103,725 and 102,097
- Fluorescence ([1]; no additive, NaMoO4 0 μM, 0 μM H2O2): 59,711 and 30,413 and 38,407
- Fluorescence ([1]; no additive, NaMoO4 0 μM, 100 μM H2O2): 48,948 and 86,970 and 68,803
- Fluorescence ([1]; no additive, NaMoO4 1 μM, 0 μM H2O2): 36,829 and 38,478 and 40,456
- Fluorescence ([1]; no additive, NaMoO4 1 μM, 10 μM H2O2): 27,103 and 23,437 and 25,142
- Fluorescence ([1]; no additive, NaMoO4 1 μM, 100 μM H2O2): 64,673 and 74,322 and 79,262
- Fluorescence ([1]; no additive, NaMoO4 10 μM, 10 μM H2O2): 33,243 and 34,233 and 26,543
- Fluorescence ([1]; no additive, NaMoO4 10 μM, 100 μM H2O2): 113,217 and 132,450 and 119,014
- Fluorescence ([1]; no additive, NaMoO4 100 μM, 0 μM H2O2): 24,734 and 26,617 and 17,702
- Fluorescence ([1]; no additive, NaMoO4 100 μM, 10 μM H2O2): 38,768 and 55,874 and 53,722
- Fluorescence ([1]; no additive, NaMoO4 100 μM, 100 μM H2O2): 468,686 and 476,166 and 482,448
- rate of reaction with H2O2 relative to boronate-based probes [2]: seven times faster
- second order rate constant k ([2]; 5% MeCN in pH 7.5 HEPES buffer 50 mM, [1]=1.7 μM): 9.82 ± 1.11 M⁻¹ s⁻¹
- Slope k′ ([2]; [H2O2] 0.625 mM): 0.00251 s⁻¹
- Slope k′ ([2]; [H2O2] 1.25 mM): 0.01359 s⁻¹
- Slope k′ ([2]; [H2O2] 2.5 mM): 0.02432 s⁻¹
- F-F0 (515 nm) ([2]; 30 s): 145,691 and 101,161 and 83,026
- [1] ([2]; 30 s): 1.3453 µM and 1.4596 µM and 1.5061 µM
- F-F0 (515 nm) ([2]; 90 s): 220,196 and 277,036 and 236,883
- [1] ([2]; 90 s): 1.1541 µM and 1.0082 µM and 1.1113 µM
- F-F0 (515 nm) ([2]; 150 s): 301,900 and 391,059 and 348,470
- [1] ([2]; 150 s): 0.9444 µM and 0.7157 µM and 0.8249 µM
- F-F0 (515 nm) ([2]; 210 s): 355,049 and 458,596 and 422,910
- [1] ([2]; 210 s): 0.8081 µM and 0.5424 µM and 0.6339 µM
- F-F0 (515 nm) ([2]; 270 s): 390,358 and 499,861 and 473,964
- [1] ([2]; 270 s): 0.7175 µM and 0.4365 µM and 0.5029 µM
- F-F0 (515 nm) ([2]; 330 s): 421,561 and 522,358 and 509,584
- [1] ([2]; 330 s): 0.6374 µM and 0.3787 µM and 0.4115 µM
- F-F0 (515 nm) ([2]; 390 s): 450,025 and 534,705 and 536,252
- [1] ([2]; 390 s): 0.5643 µM and 0.3470 µM and 0.3431 µM
- F-F0 (515 nm) ([2]; 450 s): 477,638 and 541,922 and 555,207
- [1] ([2]; 450 s): 0.4935 µM and 0.3285 µM and 0.2944 µM
